For 25 molecules, EC50 and IC50 results are on record in patent US10669272B2, “Substituted naphthyridinone compounds useful as T cell activators” (BRISTOL-MYERS SQUIBB COMPANY, priority 2018, dated 2020).

Where two headings read alike, the source gives them in different places.

One test deals with Human venous whole blood. Description: Human whole blood IFN-γ assay.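 Further: blood from healthy donors exposed to compound for 1 h before stimulation with anti-CD3 and anti-CD28 at 1 µg/mL each, IFN-γ quantified in supernatant by AlphaLISA.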 It counts as cell-based. Particulars: human whole blood, read-out: INFg Whole Blood Normalized Agonist EC50.
In a further test the target is T1, human DGKζ (Homo sapiens, UniProt Q13574).
T1 construct: TVMV protease cleavage site (C); Hexa-His (C); made in house; host or cells: Sf9 insect cells (baculovirus, Bac-to-Bac)
Description: DGKζ LIPGLO assay (extruded liposome substrate), in vitro DGK inhibition. Particulars: read-out: DGKz LIPGLO IC50. It counts as biochemical.

The target in the next test is T2, human DGKα (Homo sapiens, UniProt P23743).
T2 construct: TVMV protease cleavage site (C); Hexa-His (C); made in house; host or cells: Sf9 insect cells (baculovirus, Bac-to-Bac)
Description: DGKα LIPGLO assay (extruded liposome substrate), in vitro DGK inhibition. It counts as biochemical. Particulars: read-out: DGKa LIPGLO IC50.

Setting [1] is: normalized to 3 μM reference compound with anti-CD3 plus anti-CD28 as 100% activation.
The mark [2] stands for this setting: Homo sapiens, 24 h, normalized to 3 μM reference compound with anti-CD3 plus anti-CD28 as 100% activation.
Setting [3] is: Homo sapiens, 24 h, anti-CD3 plus anti-CD28, 24 hours, 3 μM reference compound = 100% activation.
Setting [4] is: anti-CD3 plus anti-CD28, 24 hours, 3 μM reference compound = 100% activation.

T2 sequence (P23743 with tags, fused parts or gaps): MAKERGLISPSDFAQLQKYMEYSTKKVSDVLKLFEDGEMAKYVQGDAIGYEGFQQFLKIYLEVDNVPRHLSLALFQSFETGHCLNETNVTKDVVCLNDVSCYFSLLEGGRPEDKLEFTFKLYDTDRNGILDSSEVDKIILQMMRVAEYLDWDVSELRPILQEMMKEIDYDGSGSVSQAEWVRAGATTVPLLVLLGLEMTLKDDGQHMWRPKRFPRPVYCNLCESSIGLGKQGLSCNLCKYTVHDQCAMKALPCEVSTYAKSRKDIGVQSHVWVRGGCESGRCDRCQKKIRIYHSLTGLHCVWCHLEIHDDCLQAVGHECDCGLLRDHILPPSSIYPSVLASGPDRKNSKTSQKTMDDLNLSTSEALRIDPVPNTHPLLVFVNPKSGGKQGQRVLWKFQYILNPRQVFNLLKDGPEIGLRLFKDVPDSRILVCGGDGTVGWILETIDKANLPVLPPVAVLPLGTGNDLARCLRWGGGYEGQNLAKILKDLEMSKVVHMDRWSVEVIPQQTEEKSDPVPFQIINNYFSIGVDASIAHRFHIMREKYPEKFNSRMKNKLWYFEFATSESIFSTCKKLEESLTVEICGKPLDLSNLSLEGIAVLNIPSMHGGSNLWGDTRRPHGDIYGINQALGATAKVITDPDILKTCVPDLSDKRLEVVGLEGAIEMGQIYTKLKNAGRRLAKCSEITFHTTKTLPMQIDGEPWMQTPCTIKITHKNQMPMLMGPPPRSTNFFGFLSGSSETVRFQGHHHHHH
T1 sequence (Q13574 with tags, fused parts or gaps isoform Q13574-4): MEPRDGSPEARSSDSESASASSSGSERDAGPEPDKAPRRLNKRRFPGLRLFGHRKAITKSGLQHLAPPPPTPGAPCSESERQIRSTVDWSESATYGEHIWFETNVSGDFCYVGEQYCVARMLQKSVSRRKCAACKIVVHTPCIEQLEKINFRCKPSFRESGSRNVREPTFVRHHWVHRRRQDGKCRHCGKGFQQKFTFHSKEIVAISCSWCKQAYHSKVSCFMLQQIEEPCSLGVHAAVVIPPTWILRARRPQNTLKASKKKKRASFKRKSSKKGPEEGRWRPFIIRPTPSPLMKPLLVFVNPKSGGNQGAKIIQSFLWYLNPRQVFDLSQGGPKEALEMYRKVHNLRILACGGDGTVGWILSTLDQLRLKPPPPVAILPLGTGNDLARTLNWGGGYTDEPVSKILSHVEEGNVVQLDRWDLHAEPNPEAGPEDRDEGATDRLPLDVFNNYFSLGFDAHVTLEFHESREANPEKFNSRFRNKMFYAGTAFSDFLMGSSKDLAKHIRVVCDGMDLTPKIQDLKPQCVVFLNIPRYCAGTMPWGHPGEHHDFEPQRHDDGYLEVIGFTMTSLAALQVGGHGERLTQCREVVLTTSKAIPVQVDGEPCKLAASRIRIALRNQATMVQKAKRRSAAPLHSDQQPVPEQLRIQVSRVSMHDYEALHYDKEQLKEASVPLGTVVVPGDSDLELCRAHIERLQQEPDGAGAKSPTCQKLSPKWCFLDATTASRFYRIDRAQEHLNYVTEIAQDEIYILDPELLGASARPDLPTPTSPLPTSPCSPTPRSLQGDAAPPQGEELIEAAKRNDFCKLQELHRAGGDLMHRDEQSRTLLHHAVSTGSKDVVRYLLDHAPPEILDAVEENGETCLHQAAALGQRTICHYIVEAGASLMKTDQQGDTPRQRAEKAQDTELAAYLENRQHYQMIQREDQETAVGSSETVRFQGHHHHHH
Description for Human venous whole blood: Human Whole Blood IFN-γ Assay
Human venous whole blood (22.5 μL per well), obtained from healthy donors, was pre-treated with compounds for one hour at 37° C. in a humidified 95% air/5% CO2 incubator. The blood was stimulated with 2.5 μL anti-human CD3 and anti-CD28 mAb at a final concentration of 1 μg/mL each for 24 hours at 37° C. IFN-γ in the supernatants was measured using AlphLISA kit (Cat # AL217).

As usually defined, the EC50 is the concentration needed to bring the measured effect to its halfway point. Broadly, the IC50 is the concentration at which inhibition is half-maximal. Consider `COc1ccc(C(C)N2C[C@H](C)N(c3cc(=O)n(C)c4ccc(C#N)nc34)C[C@H]2C)nc1` (single isomer, unassigned) [Example 645], for which the EC50 with Human venous whole blood (setting [1]) was found to be 17000 nM. Moreover, the figures for the 50% inhibitory concentration (IC50) at human DGKζ (liposome (LIPGLO) assay) and at human DGKα (liposome (LIPGLO) assay) were 18000 nM and 1900 nM, respectively.
On to `C[C@@H]1CN(c2cc(=O)n(C)c3ccc(C#N)nc23)[C@@H](C)CN1C(c1c(F)cc(O)cc1F)C(F)(F)F` (single isomer, unassigned) [Example 592], for which the half-maximal effective concentration (EC50) with Human venous whole blood (setting [2]) was 3600 nM. Also, the IC50 stood at 19000 nM at human DGKζ (liposome (LIPGLO) assay) and 5500 nM at human DGKα (liposome (LIPGLO) assay).
With `C[C@@H]1CN(c2cc(=O)n(C)c3ccc(C#N)nc23)[C@@H](C)CN1C(c1ccc(F)cc1)c1csc(C2CC2)n1` (single isomer, unassigned) [Example 723], in the test on Human venous whole blood (setting [3]), the EC50 was found to be 450 nM. Moreover, the IC50 on human DGKζ (DGKζ liposome (LIPGLO) assay) was found to be 11 nM; on human DGKα (DGKα liposome (LIPGLO) assay), 310 nM.
As for `COc1cc(F)c(CN2C[C@H](C)N(c3cc(=O)n(C)c4ccc(C#N)nc34)C[C@H]2C)c(F)c1` [Example 1276], the 50% effective concentration (EC50) in the test on Human venous whole blood (setting [2]) is 490 nM. Moreover, the concentration for half-maximal inhibition (IC50) at human DGKζ (liposome (LIPGLO) assay) turned out to be 240 nM; on human DGKα (liposome (LIPGLO) assay) it was 71 nM.
Take `C[C@@H]1CN(c2c(C#N)c(=O)n(C)c3ccc(C#N)nc23)CCN1C(c1ccc(F)cc1)c1ncccc1F` (single isomer, unassigned) [Example 891]: the concentration giving a half-maximal response (EC50) in the test with Human venous whole blood (setting [3]) was 2800 nM. Further, the concentration for half-maximal inhibition (IC50) on human DGKζ (DGKζ liposome (LIPGLO) assay) amounted to 3000 nM; on human DGKα (DGKα liposome (LIPGLO) assay) it was 3100 nM.
Turning to `CC[C@H]1CN(C(C)c2ccc(F)cc2F)[C@H](C)CN1c1cc(=O)n(C)c2ccc(C#N)nc12` (single isomer, unassigned) [Example 1137], in the test with Human venous whole blood (setting [1]), the EC50 worked out at 290 nM. Moreover, the 50% inhibitory concentration (IC50) stood at 45 nM at human DGKζ (liposome (LIPGLO) assay) and 26 nM at human DGKα (liposome (LIPGLO) assay).
For the molecule `COC[C@H]1CN(C(c2ccc(F)cc2)c2ccc(F)cc2)[C@H](C)CN1c1cc(=O)n(C)c2ccc(C#N)nc12` [Example 1421, 8-((2R,5R)-4-(bis(4-fluorophenyl)methyl)-2-(methoxymethyl)-5-methylpiperazin-1-yl)-5-methyl-6-oxo-5,6-dihydro-1,5-naphthyridine-2-carbonitrile], in the test on Human venous whole blood (setting [2]), the EC50 was 1500 nM. Further, the concentration for half-maximal inhibition (IC50) amounted to 470 nM on human DGKζ (liposome (LIPGLO) assay) and 2100 nM on human DGKα (liposome (LIPGLO) assay).
In the case of `CC(c1cccc2c1OC(F)(F)O2)N1C[C@H](C)N(c2cc(=O)n(C)c3ccc(C#N)nc23)C[C@H]1C` (single isomer, unassigned) [Example 1217], the EC50 in the test with Human venous whole blood (setting [1]) was determined as 4600 nM. Moreover, the IC50 on human DGKζ (liposome (LIPGLO) assay) turned out to be 2100 nM; at human DGKα (liposome (LIPGLO) assay), 37000 nM.
In the case of `C[C@@H]1CN(c2cc(=O)n(C)c3ccc(C#N)nc23)[C@@H](C)CN1C(c1ccc(F)cc1)c1cccnn1` (single isomer, unassigned) [Example 383], the EC50 in the test with Human venous whole blood (setting [2]) is 3200 nM. Also, the values for the IC50 on human DGKζ (liposome (LIPGLO) assay) and on human DGKα (liposome (LIPGLO) assay) were 13000 nM and 5600 nM, respectively.
Consider `COc1cc(F)c(C(C)N2C[C@H](C)N(c3cc(=O)n(C)c4ccc(C#N)nc34)C[C@H]2C)cc1OC` (single isomer, unassigned) [Example 1246], for which, in the test on Human venous whole blood (setting [1]), the EC50 was found to be 2100 nM. Further, the half-maximal inhibitory concentration (IC50) turned out to be 100 nM at human DGKζ (liposome (LIPGLO) assay) and 11000 nM at human DGKα (liposome (LIPGLO) assay).
The matching figures for `C[C@@H]1CN(c2cc(=O)n(C)c3ccc(C#N)nc23)[C@@H](C)CN1C(c1ccc(F)cc1)C(F)(F)F` (single isomer, unassigned) [Example 583]: 460 nM, 950 nM and 100 nM.
Consider `COC[C@@H]1CN(c2cc(=O)n(C)c3ccc(C#N)nc23)[C@@H](C)CN1C(c1ccc(F)cc1)c1ccon1` (single isomer, unassigned) [Example 1399], for which, in the test on Human venous whole blood (setting [1]), the EC50 amounted to 3000 nM. Also, the IC50 on human DGKζ (liposome (LIPGLO) assay) was 450 nM; at human DGKα (liposome (LIPGLO) assay), 160 nM.
The matching figures for `CC(c1ccc(OC(F)(F)F)cc1)N1C[C@H](C)N(c2cc(=O)n(C)c3ccc(C#N)nc23)C[C@H]1CN1CCOCC1` (single isomer, unassigned) [Example 1415]: 6900 nM, 1800 nM and 19000 nM.
Turning to `C[C@@H]1CN(c2c(C#N)c(=O)n(C)c3ccc(C#N)nc23)[C@@H](C)CN1C(c1ccc(F)cc1)c1ccc(F)cn1` (stereo partly drawn) [Example 828], the EC50 in the test with Human venous whole blood (setting [4]) came to 2700 nM. Moreover, the IC50 at human DGKζ (DGKζ liposome (LIPGLO) assay) was 16000 nM; on human DGKα (DGKα liposome (LIPGLO) assay), 4200 nM.
The matching figures for `C[C@@H]1CN(c2c(C#N)c(=O)n(C)c3ccc(C#N)nc23)CCN1C(c1ccc(F)cc1)c1cccc(F)c1` (stereo partly drawn) [Example 880]: 20000 nM, 2500 nM and 6500 nM.
The corresponding values for `C[C@@H]1CN(c2c(C#N)c(=O)n(C)c3ccc(C#N)nc23)CCN1C(c1ccc(F)cc1)c1cccc2c1OC(F)(F)O2` (single isomer, unassigned) [Example 940] are 2200 nM, 7200 nM and 25000 nM.
Take `CC(c1ccc(C(F)(F)F)cn1)N1C[C@H](C)N(c2cc(=O)n(C)c3ccc(C#N)nc23)C[C@H]1C` (single isomer, unassigned) [Example 643]: the EC50 in the test on Human venous whole blood (setting [1]) came out at 5300 nM. Also, the IC50 on human DGKζ (liposome (LIPGLO) assay) was 1600 nM; at human DGKα (liposome (LIPGLO) assay), 310 nM.
Consider `C[C@@H]1CN(c2c(C#N)c(=O)n(C)c3ccc(C#N)nc23)CCN1C(c1ccccc1)c1ccc(F)cc1` (single isomer, unassigned) [Example 878], for which the 50% effective concentration (EC50) with Human venous whole blood (setting [4]) was determined as 570 nM. The figures for the half-maximal inhibitory concentration (IC50) at human DGKζ (DGKζ liposome (LIPGLO) assay) and at human DGKα (DGKα liposome (LIPGLO) assay) were 1300 nM and 1900 nM, respectively.
In the case of `C[C@@H]1CN(c2c(C#N)c(=O)n(C)c3ccc(C#N)nc23)CCN1C(c1ccc(F)cc1)c1ccc(C(F)(F)F)cn1` (single isomer, unassigned) [Example 897], in the test on Human venous whole blood (setting [4]), the EC50 stood at 13000 nM. The concentration for half-maximal inhibition (IC50) on human DGKζ (DGKζ liposome (LIPGLO) assay) was 5100 nM; at human DGKα (DGKα liposome (LIPGLO) assay) it was 250 nM.
On to `C[C@H]1CN(C(c2ccc(F)cc2)c2ccc(C(F)(F)F)cn2)[C@H](CO)CN1c1cc(=O)n(C)c2ccc(C#N)nc12` (single isomer, unassigned) [Example 1389], for which, in the test on Human venous whole blood (setting [1]), the concentration giving a half-maximal response (EC50) amounted to 920 nM. In addition, the IC50 at human DGKζ (liposome (LIPGLO) assay) came out at 880 nM; on human DGKα (liposome (LIPGLO) assay) it was 170 nM.
`CC[C@H]1CN(C(c2ccc(C)cc2)c2ccc(C)cc2)[C@H](C)CN1c1cc(=O)n(C)c2ccc(C#N)nc12` [Example 1119]: the concentration giving a half-maximal response (EC50) with Human venous whole blood (setting [2]) came to 17000 nM. The figures for the concentration for half-maximal inhibition (IC50) on human DGKζ (liposome (LIPGLO) assay) and on human DGKα (liposome (LIPGLO) assay) were 430 nM and 1000 nM, respectively.
Regarding `C[C@@H]1CN(c2cc(=O)n(C)c3ccc(C#N)nc23)[C@@H](C)CN1C(c1ccc(F)cc1)C(C)(C)O` (single isomer, unassigned) [Example 1309], in the test with Human venous whole blood (setting [1]), the EC50 worked out at 7900 nM. The half-maximal inhibitory concentration (IC50) at human DGKζ (liposome (LIPGLO) assay) was 13000 nM; on human DGKα (liposome (LIPGLO) assay), 4600 nM.
The matching figures for `Cc1ccc(C(c2ccc(C)cn2)N2C[C@H](C)N(c3cc(=O)n(C)c4ccc(C#N)nc34)C[C@H]2C)cc1` (single isomer, unassigned) [Example 457]: 590 nM, 1100 nM and 140 nM.
With `Cc1ccc(C(c2cccc(Cl)c2)N2CCN(c3c(C#N)c(=O)n(C)c4ccc(C#N)nc34)C[C@H]2C)nc1` (single isomer, unassigned) [Example 928], the half-maximal effective concentration (EC50) with Human venous whole blood (setting [3]) was determined as 1700 nM. Moreover, the results for the IC50 on human DGKζ (DGKζ liposome (LIPGLO) assay) and at human DGKα (DGKα liposome (LIPGLO) assay) were 1500 nM and 2400 nM, respectively.
`C[C@@H]1CN(c2cc(=O)n(C)c3ccc(C#N)nc23)[C@@H](C)CN1C(c1ccc(F)cc1)c1cccc(N2CCOCC2)c1` (single isomer, unassigned) [Example 673]: the EC50 in the test with Human venous whole blood (setting [1]) was 1300 nM. The IC50 is 2300 nM on human DGKζ (liposome (LIPGLO) assay) and 4700 nM at human DGKα (liposome (LIPGLO) assay).
